Where a SMILES comes first, the peptide text is derived from it. [ ]: non-standard residue; d: D form. The star is where a group is joined. Sta = CC(C)C[C@H](N)[C@@H](O)CC(=O)O; Isovaleryl = CC(C)CC(=O)*
Key:
[1] = system: C. neoformans strains H99 and may1Δ; assay: Yeast culture activity assay; format: cell-based, Cryptococcus neoformans; conditions: for terminal culture density of yeast: 48 h, 0.1, 1.0, 10 or 50 μM compound
HepG2 = assay: Cytotoxicity, CellTiter-Glo 2.0 Cell Viability Assay; format: cell-based, human; conditions: HepG2 cell line; comparators darunavir, amprenavir, indinavir (ref 40)
HIV-1 Pr wild-type = conditions: cited from earlier work
[2] = biological target: HIV-1 Pr drug resistance-associated mutants; conditions: cited from earlier work
May1 = biological target: T1, May1 (Cryptococcus neoformans, UniProt J9VS02); assay: May1 Ki determination, fluorometric assay with IQ-2 substrate; format: biochemical
T1 sequence (J9VS02 80-434 limits assumed): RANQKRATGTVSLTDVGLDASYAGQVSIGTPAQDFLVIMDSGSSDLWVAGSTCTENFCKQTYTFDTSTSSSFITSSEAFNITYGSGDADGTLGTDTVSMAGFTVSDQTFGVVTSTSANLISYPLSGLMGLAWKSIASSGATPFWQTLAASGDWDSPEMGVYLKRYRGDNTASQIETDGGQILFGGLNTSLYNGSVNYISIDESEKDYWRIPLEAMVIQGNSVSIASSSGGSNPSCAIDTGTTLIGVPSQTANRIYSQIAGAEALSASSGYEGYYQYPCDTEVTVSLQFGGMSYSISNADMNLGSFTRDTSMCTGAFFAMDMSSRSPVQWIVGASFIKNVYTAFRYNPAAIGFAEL

SMILES: CC(C)[C@H](NC(=O)[C@H](CCC(=O)O)NC(=O)C[C@H](O)[C@H](Cc1ccccc1)NC(=O)OCc1ccccc1)C(N)=O [Compound 3a, (S)-5-(((S)-1-amino-3-methyl-1-oxobutan-2-yl)amino)-4-((3S,4S)-4-(((benzyloxy)carbonyl)amino)-3-hydroxy-5-phenylpentanamido)-5-oxopentanoic acid]
- terminal culture density of yeast ([1]; H99, YNB minimal medium): dose-dependent reductions in terminal culture density

SMILES: CCCC[C@H](NC(=O)[C@H](CCC(=O)O)NC(=O)C[C@H](O)[C@H](Cc1ccccc1)NC(=O)OCc1ccccc1)C(N)=O [Compound 4a, (S)-5-(((S)-1-amino-1-oxohexan-2-yl)amino)-4-((3S,4S)-4-(((benzyloxy)carbonyl)amino)-3-hydroxy-5-phenylpentanamido)-5-oxopentanoic acid]
- terminal culture density of yeast ([1]; H99, YNB minimal medium): dose-dependent reductions in terminal culture density

SMILES: NC(=O)[C@H](CCc1ccccc1)NC(=O)[C@H](CCC(=O)O)NC(=O)C[C@H](O)[C@H](Cc1ccccc1)NC(=O)OCc1ccccc1 [Compound 13a, (S)-5-(((S)-1-amino-1-oxo-4-phenylbutan-2-yl)amino)-4-((3S,4S)-4-(((benzyloxy)carbonyl)amino)-3-hydroxy-5-phenylpentanamido)-5-oxopentanoic acid]
- cytotoxicity compared with clinically used protease inhibitors (HepG2): on par with or lower than that of clinically used protease inhibitors
- inhibition of wild-type HIV-1 Pr (in words) (HIV-1 Pr wild-type): potent, subnanomolar inhibitor
- Ki for three drug resistance-associated HIV-1 Pr mutants [2]: 0.024 to 0.32 nM
- terminal culture density of yeast at 50 μM ([1]; H99, YNB minimal medium, 48 h, 50 μM): nearly phenocopying the may1Δ mutant
- terminal culture density of yeast ([1]; H99, YNB minimal medium): dose-dependent reductions in terminal culture density
- culture density during logarithmic phase growth ([1]; H99, unbuffered YNB, 50 μM): achieved similar densities to 1b- or DMSO-treated controls during the logarithmic phase growth
- saturation density phenotype in buffered medium ([1]; YNB with 50 mM MES, pH 6.5, 50 μM): eliminated the saturation density phenotype
- culture density of may1Δ yeast ([1]; may1Δ strain, unbuffered YNB, 50 μM): did not further reduce culture densities during either the logarithmic or the stationary phase

SMILES: CC(C)CC(=O)N[C@H](C(=O)N[C@H](C(=O)N[C@@H](CC(C)C)[C@@H](O)CC(=O)N[C@@H](C)C(=O)N[C@@H](CC(C)C)[C@@H](O)CC(=O)O)C(C)C)C(C)C [PepA, pepstatin A] (Isovaleryl-VV[Sta]A[Sta]-OH)
- Ki (May1): 1.3 ± 0.1 nM

SMILES: CC(=O)N[C@H](C(=O)N[C@H](C(=O)N[C@@H](CC(C)C)[C@@H](O)CC(=O)N[C@@H](C)C(=O)N[C@@H](CC(C)C)[C@@H](O)CC(=O)O)C(C)C)C(C)C [acetyl pepstatin] (Ac-VV[Sta]A[Sta]-OH)
- Ki (May1): 3.3 ± 0.1 nM
